Laboratory results as given in ChEMBL document CHEMBL5331093, “Identification of "dual-site"-binding diarylpyrimidines targeting both NNIBP and the NNRTI adjacent site of the HIV-1 reverse transcriptase” (Eur J Med Chem, 2023).
In brackets after ≈: the same amount, converted by molar mass.

What was measured:
[1] = test system: Human immunodeficiency virus 1; assay: Anti-HIV activity against NNRTI-resistant HIV-1 harboring RT E138K mutant infected in human MT4 cells assessed as inhibition of virus-induced cytopathic effect incubated for 5 days by MTT assay; format: functional, organism-based; settings: Human immunodeficiency virus 1, MT4, 120 h
[2] = test system: Human immunodeficiency virus 1; assay: Anti-HIV activity against NNRTI-resistant HIV-1 harboring RT Y181C mutant infected in human MT4 cells assessed as inhibition of virus-induced cytopathic effect incubated for 5 days by MTT assay; format: functional, organism-based; settings: Human immunodeficiency virus 1, MT4, 120 h
[3] = Cytotoxicity against human MT4 cells assessed as reduction in cell viability incubated for 5 days by MTT assay; format: toxicity, cell-based; settings: time 5 day
[4] = Selectivity index, ratio of CC50 cytotoxicity against human MT4 cells to EC50 for anti-HIV activity against wild type HIV-1 IIIB infected in human MT4 cells; format: toxicity, cell-based; settings: read-out: Ratio CC50/EC50
[5] = test system: Human immunodeficiency virus 1; assay: Anti-HIV activity against wild type HIV-1 IIIB infected in human MT4 cells assessed as inhibition of virus-induced cytopathic effect incubated for 5 days by MTT assay; format: functional, organism-based; settings: Human immunodeficiency virus 1, IIIB, MT4, 120 h
[6] = Selectivity index, ratio of CC50 cytotoxicity against human MT4 cells to EC50 for anti-HIV activity against NNRTI-resistant HIV-1 RES056 harboring RT K103N/Y181C double mutant infected in human MT4 cells; format: toxicity, cell-based; settings: read-out: Ratio CC50/EC50
[7] = test system: Human immunodeficiency virus 1; assay: Anti-HIV activity against NNRTI-resistant HIV-1 harboring RT L100I mutant infected in human MT4 cells assessed as inhibition of virus-induced cytopathic effect incubated for 5 days by MTT assay; format: functional, organism-based; settings: Human immunodeficiency virus 1, MT4, 120 h
[8] = test system: Human immunodeficiency virus 1; assay: Anti-HIV activity against NNRTI-resistant HIV-1 RES056 harboring RT K103N/Y181C double mutant infected in human MT4 cells assessed as inhibition of virus-induced cytopathic effect incubated for 5 days by MTT assay; format: functional, organism-based; settings: Human immunodeficiency virus 1, RES056, MT4, 120 h
[9] = test system: Human immunodeficiency virus 1; assay: Anti-HIV activity against NNRTI-resistant HIV-1 harboring RT K103N mutant infected in human MT4 cells assessed as inhibition of virus-induced cytopathic effect incubated for 5 days by MTT assay; format: functional, organism-based; settings: Human immunodeficiency virus 1, MT4, 120 h
[10] = test system: Human immunodeficiency virus 1; assay: Anti-HIV activity against NNRTI-resistant HIV-1 harboring RT F227L/V106A double mutant infected in human MT4 cells assessed as inhibition of virus-induced cytopathic effect incubated for 5 days by MTT assay; format: functional, organism-based; settings: Human immunodeficiency virus 1, MT4, 120 h
[11] = Resistance factor, ratio of EC50 for anti-HIV activity against NNRTI-resistant HIV-1 RES056 harboring RT K103N/Y181C double mutant infected in human MT4 cells to EC50 for anti-HIV activity against wild type HIV-1 IIIB infected in human MT4 cells; format: functional
[12] = test system: Human immunodeficiency virus 1; assay: Anti-HIV activity against NNRTI-resistant HIV-1 harboring RT Y188L mutant infected in human MT4 cells assessed as inhibition of virus-induced cytopathic effect incubated for 5 days by MTT assay; format: functional, organism-based; settings: Human immunodeficiency virus 1, MT4, 120 h
[13] = target: Human immunodeficiency virus type 1 reverse transcriptase (Human immunodeficiency virus 1, UniProt Q72547); assay: Inhibition of wild type recombinant HIV-1 reverse transcriptase assessed as reduction of biotin-dUTP incorporation into […] using ABTS as substrate incubated for 1 hrs by ELISA analysis
[14] = Aqueous solubility of the compound at pH 7.0; format: physicochemical; settings: aqueous medium
[15] = Aqueous solubility of the compound at pH 2.0; format: physicochemical; settings: aqueous medium
[16] = Aqueous solubility of the compound at pH 7.4; format: physicochemical; settings: aqueous medium

SMILES	EC50 [1] [µM]	EC50 [2] [µM]	CC50 at 120 h [3] [µM]	selectivity ratio [4]	EC50 [5] [µM]	selectivity ratio [6]	EC50 [7] [µM]	EC50 [8] [µM]	EC50 [9] [µM]	EC50 [10] [µM]	Ratio EC50 [11]	EC50 [12] [µM]	IC50 [13] [µM]	solubility [14] [µg/mL]	solubility [15] [µg/mL]	solubility [16] [µg/mL]
C#CCNC(=O)C#Cc1cnc(Nc2ccc(C#N)cc2)nc1Oc1c(C)cc(C#N)cc1C	0.0272	0.0872	7.02	1140	0.00615	9	0.125	0.814	0.0152	0.452	132	0.155	–	–	–	–
COC(=O)C1CCC(NC(=O)C#Cc2cnc(Nc3ccc(C#N)cc3)nc2Oc2c(C)cc(C#N)cc2C)CC1 (centres undefined)	0.0269	0.101	11.5	1800	0.00638	17	0.131	0.664	0.0204	3.21	104	0.171	0.185	–	–	–
Cc1cc(C#N)cc(C)c1Oc1nc(Nc2ccc(C#N)cc2)ncc1C#CC(=O)NCCN1CCN(S(C)(=O)=O)CC1	–	–	4.89	440	0.0111	–	–	0.774	–	–	70	–	–	–	–	–
O=C1Nc2ccc(Cl)cc2[C@@](C#CC2CC2)(C(F)(F)F)O1 [EFAVIRENZ]	0.00352	0.00478	> 6.34	–	0.00236	–	0.0334	0.136	–	0.154	–	0.199	–	–	–	–
Cc1cc(C#N)cc(C)c1Oc1nc(Nc2ccc(C#N)cc2)ncc1C#CC(=O)NCCOCCO	–	–	9.38	890	0.0105	11	–	0.818	–	–	78	–	–	–	–	–
Cc1cc(C#N)cc(C)c1Oc1nc(Nc2ccc(C#N)cc2)nc(N)c1Br [ETRAVIRINE]	0.00532	–	> 4.59	–	–	–	0.00572	0.0234	0.00278	0.0168	–	–	–	–	–	–
C#CCNC(=O)/C=C/c1cnc(Nc2ccc(C#N)cc2)nc1Oc1c(C)cc(C#N)cc1C	–	–	–	27100	–	109	–	–	–	–	248	–	–	–	–	–
COCCNC(=O)C#Cc1cnc(Nc2ccc(C#N)cc2)nc1Oc1c(C)cc(C#N)cc1C	0.00627	0.0096	13.6	6650	0.00204	379	0.00606	0.0357	0.00236	0.0611	18	0.0143	0.019	8.27 (≈ 17.7 µM)	22.8 (≈ 48.9 µM)	7.84 (≈ 16.8 µM)
Cc1cc(C#N)cc(C)c1Oc1nc(Nc2ccc(C#N)cc2)ncc1C#CC(=O)NC1CC1	0.0149	0.0369	5.3	1110	0.00478	17	0.111	0.313	0.0133	0.376	66	0.236	0.052	–	–	–
CCOC(=O)C#Cc1cnc(Nc2ccc(C#N)cc2)nc1Oc1c(C)cc(C#N)cc1C	0.00972	0.0136	34.5	7940	0.00435	260	0.0109	0.133	0.0052	0.0159	31	0.0103	0.102	–	–	–
Cc1cc(C#N)cc(C)c1Oc1nc(Nc2ccc(C#N)cc2)ncc1SCC(=O)NCCCN1CCOCC1	0.0381	0.0309	–	6930	0.00341	61	0.0258	0.386	0.00278	0.231	113	0.0946	0.113	–	–	–
Cc1cc(C#N)cc(C)c1Oc1nc(Nc2ccc(C#N)cc2)ncc1C#CC(=O)NCCN1CCOCC1	–	–	> 240	> 2000	0.12	> 2	–	–	–	–	957	–	–	–	–	–
Cc1cc(C#N)cc(C)c1Oc1nc(Nc2ccc(C#N)cc2)ncc1C#CC(=O)NCCCN1CCOCC1	–	–	59.2	4600	0.0129	17	–	3.45	–	–	268	–	–	–	–	–
Cc1cc(C#N)cc(C)c1Oc1nc(Nc2ccc(C#N)cc2)ncc1C#CC(=O)NCCN1CCN(C(=O)OC(C)(C)C)CC1	–	–	22.4	1220	0.0183	6	–	4.01	–	–	219	–	–	–	–	–
